Data taken from patent publication US8937077B2, “Bicyclic diamines as janus kinase inhibitors” (Merck Sharp & Dohme Corp., priority 2010, dated 2015).
Where two headings read alike, the source gives them in different places.

Molecular target: T1, Jak1 (Homo sapiens, UniProt P23458)
T1 construct: using a recombinant purified GST-tagged catalytic domain for each enzyme; GST; purchased Invitrogen M4290
Assay: Jak Biochemical HTRF Assay (Jak1)
Details: recombinant GST-tagged catalytic domain
Outline: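 Recombinant GST-tagged Jak1 catalytic domain was preincubated with compound and peptide substrate for 30 min at room temperature, and the reaction was then started with ATP and run 120 min. Buffer contained 2 mM DTT and 0.05% BSA. Read-out was HTRF (665/615 nm) with Eu-pY20 antibody and streptavidin-Dylight, and IC50 values came from 4-parameter fits of percent inhibition.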

[1] = IC50 class, read-out: Jak1 activity
[2] = 31.8 μM ATP, read-out: Representative IC50 values

T1 sequence (P23458 875-1153 limits assumed): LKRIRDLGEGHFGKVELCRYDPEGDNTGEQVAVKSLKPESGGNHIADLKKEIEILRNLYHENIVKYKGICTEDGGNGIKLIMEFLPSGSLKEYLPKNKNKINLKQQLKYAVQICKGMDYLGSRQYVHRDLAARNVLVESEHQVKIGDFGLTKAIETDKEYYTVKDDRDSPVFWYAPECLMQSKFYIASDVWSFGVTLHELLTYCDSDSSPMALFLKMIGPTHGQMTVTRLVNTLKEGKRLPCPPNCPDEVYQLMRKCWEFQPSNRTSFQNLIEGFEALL

Structure (SMILES) | IC50 [1] [nM] | also measured
COC(=O)c1cccc(OC(=O)N2CCCC3C2CCN3c2ncnc3[nH]ccc23)c1 (stereo not drawn) [Example 3-26, 3-(methoxyeaxbonyl)phenyl 1-(7H-pyrrolo[2,3-d]pyrimidin-4-yl)octahydro-4H-pyrrolo[3,2-b]pyridine-4-carboxylate] | 10 to 100 | –
CO[C@](C(=O)N1CCC[C@@H]2[C@H]1CCN2c1ncnc2[nH]ccc12)(c1ccccc1)C(F)(F)F [Example 18, (2S)-3,3,3-trifluoro-2-methoxy-2-phenyl-1-[(3aR,7aR)-1-(7H-pyrrolo[2,3-d]pyrimidin-4-yl)octahydro-4H-pyrrolo[3,2-b]pyridine-4-yl]propan-1 one] | 100 to 1000 | –
O=S(=O)(CCc1ccccc1)N1CCC[C@@H]2[C@H]1CCN2c1ncnc2[nH]ccc12 [Example 32-2, 4-{(3aR,7aR)-4-[(2-phenylethyl)sulfonyl]octahydro-1H-pyrrolo[3,2-b]pyridin-1-yl}-7H-pyrrolo[2,3-d]pyrimidine] | 1 to 10 | IC50 [2]: 7 nM
COc1ccc(CC(=O)N2CCCC3C2CCN3c2ncnc3[nH]ccc23)cc1 (stereo not drawn) [Example 29-4, 4-{4-[(4-methoxyphenyl)acetyl]octahydro-1H-pyrrolo[3,2-b]pyridin-1-yl}-7H-pyrrolo[2,3-d]pyrimidine] | 10 to 100 | –
O=C(c1cnccn1)N1CCC[C@@H]2[C@H]1CCN2c1ncnc2[nH]ccc12 [Example 29-13, 4-[(3aR,7aR)-4-(pyrazin-2-ylcarbonyl)octahydro-1H-pyrrolo[3,2-b]pyridin-1-yl]-7H-pyrrolo[2,3-d]pyrimidine] | 10 to 100 | –
c1nc(N2CCC3NCCC[C@@H]32)c2cc[nH]c2n1 (single isomer, unassigned) [Enantiomer 1] | 100 to 1000 | –
COC(=O)c1ccc(CCOC(=O)N2CCC[C@@H]3[C@H]2CCN3c2ncnc3[nH]ccc23)cc1 [Example 3-21, 2-[4-(methoxycarbonyl)phenyl]ethyl (3aR,7aR)-1-(7H-pyrrolo[2,3-d]pyrimidin-4-yl)octahydro-4H-pyrrolo[3,2-b]pyridine-4-carboxylate] | 10 to 100 | –
CN1CCN(CCOC(=O)N2CCC[C@@H]3[C@H]2CCN3c2ncnc3[nH]ccc23)CC1 [Example 3-41, 2-(4-methylpiperazin-1-yl)ethyl(3aR,7aR)-1-(7H-pyrrolo[2,3-d]pyrimidin-4-yl)octahydro-4H-pyrrolo[3,2-b]pyridine-4-carboxylate] | 100 to 1000 | IC50 [2]: 131 nM
Cc1ccc(COC(=O)N2CCCC3C2CCN3c2ncnc3[nH]ccc23)cc1 (stereo not drawn) [Example 3-17, 4-methylbenzyl 1-(7H-pyrrolo[2,3-d]pyrimidin-4-yl)octahydro-4H-pyrrolo[3,2-b]-pyridine-4-carboxylate] | 10 to 100 | –
CC1CCN(C(=O)OCc2ccccc2)C2CCN(c3ncnc4[nH]ccc34)C12 [Example 20, (3aS,7S,7aS and 3aR,7R,7aR) benzyl 7-methyl-1-(7H-pyrrolo[2,3-d]pyrimidin-4-yl)octahydro-4H-pyrrolo[3,2-b]pyridine-4-carboxylate] | – | IC50 (Jak1 activity, IC50 class): 10 to 100 nM; IC50 (Representative IC50 values, 31.8 μM ATP): 12 nM
O=C(OCc1cnccn1)N1CCCC2C1CCN2c1ncnc2[nH]ccc12 (stereo not drawn) [Example 3-18, pyrazin-2-ylmethyl 1-(7H-pyrrolo[2,3-d]pyrimidin-4-yl)octahydro-4H-pyrrolo[3,2-b]-pyridine-4-carboxylate] | 10 to 100 | –
O=C(O)c1ccc(CCOC(=O)N2CCC[C@@H]3[C@H]2CCN3c2ncnc3[nH]ccc23)cc1 [Example 28, 4-[2-({[(3aR,7aR)-1-(7H-pyrrolo[2,3-d]pyrimidin-4-yl)octahydro-4H-pyrrolo[3,2-b]pyridin-4-yl]carbonyl}oxy)ethyl]benzoic acid] | 100 to 1000 | –
